Assay results from patent publication US7988972B2, “Immunoreactive peptides from Epstein-Barr virus” (Ortho-Clinical Diagnostics, Inc., priority 1993, dated 2011).

Tests used:
[1] = system: antibodies to peptides 50.10 (EA-D) and 17.1 (EA-R) in sequential sera; test: IgG ELISA on sequential sera of a patient with acute infectious mononucleosis; type: binding, human; conditions: sera at 1.20 dilution, (+) >0.25
Excerpt: The early antigen D-R transition was followed in a patient during a course of acute infectious mononucleosis. Antibodies to peptides 50.10 (EA-D) and 17.1 (EA-R) were detected by ELISAs on specimens collected over a six month duration. […] Therefore, the peptides of the invention are useful for monitoring the course of EBV-associated disease in a patient.

[2] = system: EA reactive antibody (IgG) in infectious mononucleosis (IM) sera; test: ELISA, EA peptides with EBV infectious mononucleosis sera; type: binding, human; conditions: for ELISA result, peptides with and without extensions: EA positive EBV IM acute serum; for O.D.: 420 nm
Protocol: ELISA. The ELISA for measuring specific antibodies to p17, p50 or to the synthetic peptides was performed as previously described in detail (Luka et al., J. Immunol. Methods, 67:145-156, 1984). Aliquots of different antigen concentrations were diluted in 0.5M Na2CO3 buffer, pH 9.5, added to wells in polystyrene microtiter plates (Linbro) and the plates incubated overnight at 4° C. Following this incubation period, the plates were washed 5× with Tris-HCl, pH 7.4, containing 0.05% Tween 20, 50 mM NaCl and 100 mg per liter albumin (Sigma) and dried for 20 minutes at room temperature. The plates were screened with different anti-EA-R or EA-D antibody positive human sera and the monoclonal antibody to p17 or p50 to identify the optimal concentration of antigen to be used in the serological studies. Alkaline-phosphatase-labelled goat anti-human IgG (Sigma) or goat anti-mouse IgG (Sigma) was used as the indicator system.
For the testing of human sera for antibodies to native p17, p50 or to the synthetic peptides, sera were diluted 1:10 in ELISA buffer, added in 0.1 ml volumes to wells coated with optimal concentrations of antigen and the plates were incubated for 60 minutes at room temperature. After 4 washes with ELISA buffer, 100 μl of alkaline phosphatase-labelled goat anti-human IgG in ELISA buffer were added to each well and the plates were incubated at room temperature for 1 hour. Following four more washes in buffer, the enzyme reaction was performed by dissolving 1 mg per ml of Sigma alkaline phosphatase substrate in 1M diethanolamine buffer, pH 10.4, containing 1 mM MgCl2 and 0.1 mM ZnCl2, and 100 μl of the mixture was then added to each well. The reaction was allowed to proceed for 30 minutes at 37° C. and then the plates were screened directly with a microplate reader, TITERTEK MULTISKAN MC (Flow), at 420 nm. Readings above 0.1 which was 2× the background noted with antibody-negative sera were considered positive reactions.
When the entire 50.10 peptide was tested with 1M sera, 24/32 or 75% of the sera contained EA-D reactive antibody (IgG) (Table 4).
Serological reactivity of EA peptides p17.1 and p50.1 which contained additional amino acids on their amino and carboxy termini was tested on EBV IM acute sera which was EA positive. The ELISA results shown in Table 5 indicate that the additional amino acids improved reactivity for both EA peptides.
Immunofluorescence assays (IFA) were performed as described by Henle, et al. (Int. J. Cancer, 8:272-282, 1971). Western blot analysis was done by methods commonly used in the art (See for example, Coligan, et al., Current Protocols in Immunology, Wiley Interscience, 1991, Unit 12). Samples of EBV-infected cell lysates (P3HR-1) were tested with human whole antiserum from positive humans (Pearson, et al., Virology, 160:151-161, 1987). A comparison was made between EA serology by IFA, using the EA-D 50.1 peptide antisera, and ELISA serology using 50.1 peptide (see Example 2).

[3] = 32 IM sera, values >0.5 positive (O.D. 420 nm)

Sequence: ETFTETWNRFITHTE [p17.1, synthetic peptide from 17 Kd early antigen (EA-R) region of EBV]
- IgG ELISA O.D. reading ([1]; serum no. 9817, May 26, 1988): 0.158
- IgG ELISA O.D. reading ([1]; serum no. 9820, May 31, 1988): 0.106
- IgG ELISA O.D. reading ([1]; serum no. 9829, Jun. 07, 1988): 0.135
- IgG ELISA O.D. reading ([1]; serum no. 9941, Jun. 20, 1988): 0.169
- IgG ELISA O.D. reading ([1]; serum no. 9983, Jun. 27, 1988): 0.645
- IgG ELISA O.D. reading ([1]; serum no. 10064, Jul. 18, 1988): 0.842
- IgG ELISA O.D. reading ([1]; serum no. 10237, Aug. 29, 1988): 0.260
- IgG ELISA O.D. reading ([1]; serum no. 10271, Sep. 20, 1988): 0.231
- IgG ELISA O.D. reading ([1]; serum no. 10488, Oct. 21, 1988): 0.217
- IgG ELISA O.D. reading ([1]; serum no. 10546, Nov. 15, 1988): 0.193
- % Positive [2, 3]: 38%
- IM sera positive / tested [2, 3]: 12/32
- ELISA result, peptides with and without extensions ([2]; sample no. 2241): 0.282
- ELISA result, peptides with and without extensions ([2]; sample no. 12498): 0.637
- ELISA result, peptides with and without extensions ([2]; sample no. 12836): 0.692
- SCORE ([2]; IM serum sample no. 2241): − (Values >0.5 were considered positive (O.D. readings at 420 nm).)
- SCORE ([2]; IM serum sample no. 11984): + (Values >0.5 were considered positive (O.D. readings at 420 nm).)
- O.D. ([2]; IM serum sample no. 11984): 0.542
- SCORE ([2]; IM serum sample no. 12005): + (Values >0.5 were considered positive (O.D. readings at 420 nm).)
- O.D. ([2]; IM serum sample no. 12005): 0.981
- SCORE ([2]; IM serum sample no. 12288): + (Values >0.5 were considered positive (O.D. readings at 420 nm).)
- O.D. ([2]; IM serum sample no. 12288): 0.700
- SCORE ([2]; IM serum sample no. 12407): + (Values >0.5 were considered positive (O.D. readings at 420 nm).)
- O.D. ([2]; IM serum sample no. 12407): 0.787
- SCORE ([2]; IM serum sample no. 12409): + (Values >0.5 were considered positive (O.D. readings at 420 nm).)
- O.D. ([2]; IM serum sample no. 12409): 0.592
- SCORE ([2]; IM serum sample no. 12418): − (Values >0.5 were considered positive (O.D. readings at 420 nm).)
- O.D. ([2]; IM serum sample no. 12418): 0.463
- SCORE ([2]; IM serum sample no. 12498): + (Values >0.5 were considered positive (O.D. readings at 420 nm).)
- SCORE ([2]; IM serum sample no. 12502): + (Values >0.5 were considered positive (O.D. readings at 420 nm).)
- O.D. ([2]; IM serum sample no. 12502): 0.924
- SCORE ([2]; IM serum sample no. 12587): + (Values >0.5 were considered positive (O.D. readings at 420 nm).)
- O.D. ([2]; IM serum sample no. 12587): 0.571
- SCORE ([2]; IM serum sample no. 12600): − (Values >0.5 were considered positive (O.D. readings at 420 nm).)
- SCORE ([2]; IM serum sample no. 12611): − (Values >0.5 were considered positive (O.D. readings at 420 nm).)
- O.D. ([2]; IM serum sample no. 12611): 0.259
- SCORE ([2]; IM serum sample no. 12801): + (Values >0.5 were considered positive (O.D. readings at 420 nm).)
- O.D. ([2]; IM serum sample no. 12801): 0.601
- SCORE ([2]; IM serum sample no. 12828): − (Values >0.5 were considered positive (O.D. readings at 420 nm).)
- O.D. ([2]; IM serum sample no. 12828): 0.375
- SCORE ([2]; IM serum sample no. 12829): − (Values >0.5 were considered positive (O.D. readings at 420 nm).)
- O.D. ([2]; IM serum sample no. 12829): 0.257
- SCORE ([2]; IM serum sample no. 12836): + (Values >0.5 were considered positive (O.D. readings at 420 nm).)
- SCORE ([2]; IM serum sample no. 12837): + (Values >0.5 were considered positive (O.D. readings at 420 nm).)
- O.D. ([2]; IM serum sample no. 12837): 0.523
- SCORE ([2]; IM serum sample no. 12840): − (Values >0.5 were considered positive (O.D. readings at 420 nm).)
- O.D. ([2]; IM serum sample no. 12840): 0.488
- SCORE ([2]; IM serum sample no. 12888): − (Values >0.5 were considered positive (O.D. readings at 420 nm).)
- O.D. ([2]; IM serum sample no. 12888): 0.423
- SCORE ([2]; IM serum sample no. 12889): + (Values >0.5 were considered positive (O.D. readings at 420 nm).)
- O.D. ([2]; IM serum sample no. 12889): 0.574
- SCORE ([2]; IM serum sample no. 12892): − (Values >0.5 were considered positive (O.D. readings at 420 nm).)
- O.D. ([2]; IM serum sample no. 12892): 0.430
- SCORE ([2]; IM serum sample no. 12893): + (Values >0.5 were considered positive (O.D. readings at 420 nm).)
- O.D. ([2]; IM serum sample no. 12893): 0.592
- SCORE ([2]; IM serum sample no. 12899): + (Values >0.5 were considered positive (O.D. readings at 420 nm).)
- O.D. ([2]; IM serum sample no. 12899): 0.825
- SCORE ([2]; IM serum sample no. 12900): − (Values >0.5 were considered positive (O.D. readings at 420 nm).)
- O.D. ([2]; IM serum sample no. 12900): 0.264
- SCORE ([2]; IM serum sample no. 13075): − (Values >0.5 were considered positive (O.D. readings at 420 nm).)
- O.D. ([2]; IM serum sample no. 13075): 0.154
- SCORE ([2]; IM serum sample no. 13419): + (Values >0.5 were considered positive (O.D. readings at 420 nm).)
- O.D. ([2]; IM serum sample no. 13419): 0.655
- SCORE ([2]; IM serum sample no. 13637): + (Values >0.5 were considered positive (O.D. readings at 420 nm).)
- O.D. ([2]; IM serum sample no. 13637): 0.719
- SCORE ([2]; IM serum sample no. 13769): + (Values >0.5 were considered positive (O.D. readings at 420 nm).)
- O.D. ([2]; IM serum sample no. 13769): 0.757
- SCORE ([2]; IM serum sample no. 13929): − (Values >0.5 were considered positive (O.D. readings at 420 nm).)
- O.D. ([2]; IM serum sample no. 13929): 0.332
- SCORE ([2]; IM serum sample no. 14043): − (Values >0.5 were considered positive (O.D. readings at 420 nm).)
- O.D. ([2]; IM serum sample no. 14043): 0.095
- SCORE ([2]; IM serum sample no. 14128): − (Values >0.5 were considered positive (O.D. readings at 420 nm).)
- O.D. ([2]; IM serum sample no. 14128): 0.434
- SCORE ([2]; IM serum sample no. 14131): − (Values >0.5 were considered positive (O.D. readings at 420 nm).)
- O.D. ([2]; IM serum sample no. 14131): 0.182
